Measured values published in patent publication US20250179103A1, “6-OXODECAHYDROPYRROLO[1,2-A][1,5]DIAZOCINE AND 6-OXODECAHYDRO-4H-PYRROLO[2,1-D][1,5]THIAZOCINE DERIVATIVES AS STAT3 AND STAT6 MODULATORS FOR THE TREATMENT OF CANCER AND INFLAMMATORY CONDITIONS” (Recludix Pharma, Inc., priority 2022, published 2025).

Legend:
[1] = biological target: T1, Recombinant STAT3 protein (STAT3(G127-I722)) (Homo sapiens, UniProt P40763); test: STAT3 Fluorescence Polarization (FP) Assay; format: binding; conditions: STAT3(G127-I722) 25 nM, probe 5-FAM-GpYLPQTV-NH2 2 nM, 45-minute incubation
T1 construct: Recombinant STAT3 protein (STAT3(G127-I722))
In short: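 Fluorescence polarization after a 45-min room-temperature incubation measured compound displacement of a 2 nM fluorescein-labelled phosphotyrosine peptide (5-FAM-GpYLPQTV-NH2) from 25 nM recombinant STAT3(G127-I722). Buffer was 10 mM HEPES pH 7.4 with 1% DMSO final. IC50s were fitted by nonlinear regression of mP against log concentration.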

[2] = biological target: T2, Recombinant STAT6 protein (STAT6(W123-T658)) (Homo sapiens, UniProt P42226); test: STAT6 Fluorescence Polarization (FP) Assay; format: binding; conditions: STAT6(W123-T658) 250 nM, probe 5-FAM-ApYKPFQDLI-NH2 2 nM, 45-minute incubation
T2 construct: Recombinant STAT6 protein (STAT6(W123-T658))
T2 sequence (P42226 123-658): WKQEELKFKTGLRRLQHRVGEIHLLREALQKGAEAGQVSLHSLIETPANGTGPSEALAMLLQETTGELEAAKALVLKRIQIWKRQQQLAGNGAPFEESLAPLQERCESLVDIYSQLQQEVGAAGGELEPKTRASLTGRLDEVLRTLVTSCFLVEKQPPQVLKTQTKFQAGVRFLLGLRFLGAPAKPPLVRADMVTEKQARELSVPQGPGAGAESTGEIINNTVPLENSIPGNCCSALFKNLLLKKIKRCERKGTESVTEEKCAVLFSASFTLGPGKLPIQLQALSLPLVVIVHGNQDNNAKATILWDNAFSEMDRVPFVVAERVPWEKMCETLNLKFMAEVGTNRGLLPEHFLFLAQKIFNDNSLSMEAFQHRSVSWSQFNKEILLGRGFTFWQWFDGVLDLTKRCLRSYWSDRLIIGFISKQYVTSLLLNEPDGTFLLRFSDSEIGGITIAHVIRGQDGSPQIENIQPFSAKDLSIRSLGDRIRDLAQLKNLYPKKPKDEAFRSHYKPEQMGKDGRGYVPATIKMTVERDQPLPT
In short: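 Displacement of a fluorescent phosphotyrosine peptide (5-FAM-ApYKPFQDLI-NH2, 2 nM) from STAT6(W123-T658) (250 nM), 1% DMSO, pH 7.4 HEPES buffer. After 45 min at room temperature, polarization (mP) was plotted versus log compound concentration and fitted by nonlinear regression to give IC50.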

T1 sequence (P40763 127-722): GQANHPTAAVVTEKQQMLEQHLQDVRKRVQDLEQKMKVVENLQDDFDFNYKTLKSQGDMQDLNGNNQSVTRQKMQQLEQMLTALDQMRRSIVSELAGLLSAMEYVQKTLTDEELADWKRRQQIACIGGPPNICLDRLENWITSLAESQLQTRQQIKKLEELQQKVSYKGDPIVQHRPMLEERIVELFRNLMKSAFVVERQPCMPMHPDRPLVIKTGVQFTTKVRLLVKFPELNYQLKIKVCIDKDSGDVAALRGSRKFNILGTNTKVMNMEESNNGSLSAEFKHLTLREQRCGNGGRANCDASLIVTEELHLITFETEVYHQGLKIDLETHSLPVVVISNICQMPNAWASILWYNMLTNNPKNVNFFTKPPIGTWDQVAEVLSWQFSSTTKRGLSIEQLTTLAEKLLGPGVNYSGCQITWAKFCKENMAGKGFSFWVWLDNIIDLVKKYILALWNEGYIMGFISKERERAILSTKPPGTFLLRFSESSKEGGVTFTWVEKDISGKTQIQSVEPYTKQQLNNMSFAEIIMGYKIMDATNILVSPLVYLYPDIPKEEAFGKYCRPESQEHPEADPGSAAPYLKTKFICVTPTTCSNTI

| Structure (SMILES) | IC50 [1] [µM] | IC50 [2] [µM] |
| --- | --- | --- |
| CC(=O)N1CC[C@H]2CC[C@@H](C(=O)N(C)c3ccc4nnccc4c3)N2C(=O)[C@@H](NC(=O)c2ccc3ccc(C(F)(F)P(=O)(O)O)nc3c2)C1 [Compound 120, ((7-(((5S,8S,10aR)-3-acetyl-8-(cinnolin-6-yl(methyl)carbamoyl)-6-oxodecahydropyrrolo[1,2-a][1,5]diazocin-5-yl)carbamoyl)quinolin-2-yl)difluoromethyl)phosphonic acid] | > 10 | 3 to 30 |
| CC(=O)N1CC[C@H]2CC[C@@H](C(=O)N3C[C@@H](C#N)C[C@H](c4ccccc4)C3)N2C(=O)[C@@H](NC(=O)c2cc3cc(C(F)(F)P(=O)(O)O)ccc3s2)C1 (relative stereo) [Compound 153, ((2-(((5S,8S,10aR)-3-acetyl-8-((rel-trans)-3-cyano-5-phenylpiperidine-1-carbonyl)-6-oxodecahydropyrrolo[1,2-a][1,5]diazocin-5-yl)carbamoyl)benzo[b]thiophen-5-yl)difluoromethyl)phosphonic acid] | 1 to 10 | 0.3 to 3 |
| CC(=O)N1CC(N(C)C(=O)[C@@H]2CC[C@@H]3CCN(C(C)=O)C[C@H](NC(=O)c4cc5cc(C(F)(F)P(=O)(O)O)ccc5s4)C(=O)N32)C1 [Compound 171, ((2-(((5S,8S,10aR)-3-acetyl-8-((1-acetylazetidin-3-yl)(methyl)carbamoyl)-6-oxodecahydropyrrolo[1,2-a][1,5]diazocin-5-yl)carbamoyl)benzo[b]thiophen-5-yl)difluoromethyl)phosphonic acid] | 1 to 10 | 0.3 to 3 |
| CCN(C)CCCN(C)C(=O)[C@@H]1CC[C@@H]2CCN(C(C)=O)C[C@H](NC(=O)c3cc4cc(C(F)(F)P(=O)(O)O)ccc4[nH]3)C(=O)N21 [Compound 33, ((2-(((5S,8S,10aR)-3-acetyl-8-((3-(ethyl(methyl)amino)propyl)(methyl)carbamoyl)-6-oxodecahydropyrrolo[1,2-a][1,5]diazocin-5-yl)carbamoyl)-1H-indol-5-yl)difluoromethyl)phosphonic acid] | 1 to 10 | 3 to 30 |
| COC1CCN(C2CCN(C(=O)[C@@H]3CC[C@@H]4CCN(C(C)=O)C[C@H](NC(=O)c5cc6cc(C(F)(F)P(=O)(O)O)ccc6s5)C(=O)N43)C2)CC1 (stereo partly drawn) [Compound 83, ((2-(((5S,8S,10aR)-3-acetyl-8-(3-(4-methoxypiperidin-1-yl)pyrrolidine-1-carbonyl)-6-oxodecahydropyrrolo[1,2-a][1,5]diazocin-5-yl)carbamoyl)benzo[b]thiophen-5-yl)difluoromethyl)phosphonic acid] | 1 to 10 | 3 to 30 |
| CC(=O)N1CC[C@H]2CC[C@@H](C(=O)N(C)c3ccccc3)N2C(=O)[C@@H](NC(=O)c2cc3cc(C(C#N)P(=O)(O)O)ccc3s2)C1 (stereo partly drawn) [Compound 16, ((2-(((5S,8S,10aR)-3-acetyl-8-(methyl(phenyl)carbamoyl)-6-oxodecahydropyrrolo[1,2-a][1,5]diazocin-5-yl)carbamoyl)benzo[b]thiophen-5-yl)(cyano)methyl)phosphonic acid] | > 10 | > 30 |
| CN(C)C(=O)[C@@H]1CC[C@@H]2CCN(Cc3ccccc3)C[C@H](NC(=O)c3cc4cc(C(F)(F)P(=O)(O)O)ccc4[nH]3)C(=O)N21 [Compound 225, ((2-(((5S,8S,10aR)-3-benzyl-8-(dimethylcarbamoyl)-6-oxodecahydropyrrolo[1,2-a][1,5]diazocin-5-yl)carbamoyl)-1H-indol-5-yl)difluoromethyl)phosphonic acid] | 1 to 10 | 3 to 30 |
| Cc1ccc2[nH]nc(C(=O)N3CC[C@H]4CC[C@@H](C(=O)N(C)C)N4C(=O)[C@@H](NC(=O)c4ccc5ccc(C(F)(F)P(=O)(O)O)cc5c4)C3)c2c1 [Compound 271, ((7-(((5S,8S,10aR)-8-(dimethylcarbamoyl)-3-(5-methyl-1H-indazole-3-carbonyl)-6-oxodecahydropyrrolo[1,2-a][1,5]diazocin-5-yl)carbamoyl)naphthalen-2-yl)difluoromethyl)phosphonic acid] | 1 to 10 | ≤ 0.3 |
